Results reported in the kinase profiling compilation of Christmann-Franck et al. (2016).

Legend:
Test in all cases: radiometric filter-binding kinase assay, Kinase HotSpot
Conditions in all cases: compound 0.5 µM; ATP 10 µM
HIPK2 (human) = HIPK2 (human) (UniProt Q9H2X6)
WEE1 (human) = WEE1 (human) (UniProt P30291)
EPHA1 (human) = EPHA1 (human) (UniProt P21709)
NEK11 (human) = NEK11 (human) (UniProt Q8NG66)
ERBB2 (human) = ERBB2 (human) (UniProt P04626)
CDK4 CCND3 (human) = CDK4 CCND3 (human) (UniProt P30281+P11802)
WNK2 (human) = WNK2 (human) (UniProt Q9Y3S1)
TBK1 (human) = TBK1 (human) (UniProt Q9UHD2)
CDK1 CCNB1 (human) = CDK1 CCNB1 (human) (UniProt P06493+P14635)
EPHA2 (human) = EPHA2 (human) (UniProt P29317)
MET (human) = MET (human) (UniProt P08581)
[1] = tested on: FLT4 (human), P35916 [Q890H]
MAPKAPK3 (human) = MAPKAPK3 (human) (UniProt Q16644)
PRKCE (human) = PRKCE (human) (UniProt Q02156)
SRMS (human) = SRMS (human) (UniProt Q9H3Y6)
Sequence of SRMS (human) (Q9H3Y6 whole entry, looked up): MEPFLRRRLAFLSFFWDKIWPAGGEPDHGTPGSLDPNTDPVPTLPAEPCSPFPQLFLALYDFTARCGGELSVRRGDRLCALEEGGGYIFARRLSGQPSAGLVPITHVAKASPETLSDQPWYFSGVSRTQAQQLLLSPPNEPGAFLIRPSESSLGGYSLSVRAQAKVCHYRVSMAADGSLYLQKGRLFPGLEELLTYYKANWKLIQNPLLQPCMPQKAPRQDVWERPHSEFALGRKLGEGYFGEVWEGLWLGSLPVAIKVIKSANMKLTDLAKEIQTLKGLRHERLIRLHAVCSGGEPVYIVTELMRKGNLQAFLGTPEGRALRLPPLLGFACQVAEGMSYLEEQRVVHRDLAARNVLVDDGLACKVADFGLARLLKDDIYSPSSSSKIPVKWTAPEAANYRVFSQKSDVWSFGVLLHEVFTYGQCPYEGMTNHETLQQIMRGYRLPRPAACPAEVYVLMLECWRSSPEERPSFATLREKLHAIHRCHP

RPS6KA3 KD1 KD2 (human) = RPS6KA3 KD1 KD2 (human) (UniProt P51812)
CLK4 (human) = CLK4 (human) (UniProt Q9HAZ1)
ULK2 (human) = ULK2 (human) (UniProt Q8IYT8)
ROS1 (human) = ROS1 (human) (UniProt P08922)
RPS6KB2 (human) = RPS6KB2 (human) (UniProt Q9UBS0)
Sequence of RPS6KB2 (human) (Q9UBS0 whole entry, looked up): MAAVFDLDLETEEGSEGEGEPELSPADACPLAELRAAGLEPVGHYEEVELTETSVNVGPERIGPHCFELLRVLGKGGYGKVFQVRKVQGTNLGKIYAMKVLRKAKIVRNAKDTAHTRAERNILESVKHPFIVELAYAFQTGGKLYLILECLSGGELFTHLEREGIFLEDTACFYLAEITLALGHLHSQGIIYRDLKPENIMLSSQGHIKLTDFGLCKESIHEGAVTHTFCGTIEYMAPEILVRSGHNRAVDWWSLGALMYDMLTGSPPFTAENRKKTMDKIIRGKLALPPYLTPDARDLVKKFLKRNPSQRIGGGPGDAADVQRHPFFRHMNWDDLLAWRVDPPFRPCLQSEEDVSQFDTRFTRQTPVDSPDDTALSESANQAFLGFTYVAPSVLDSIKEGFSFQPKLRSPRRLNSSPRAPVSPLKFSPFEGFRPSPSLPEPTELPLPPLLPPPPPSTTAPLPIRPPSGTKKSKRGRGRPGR

CDK5 CDK5R1 p25 (human) = CDK5 CDK5R1 p25 (human) (UniProt Q00535+Q15078)
MAP3K9 (human) = MAP3K9 (human) (UniProt P80192)
Sequence of MAP3K9 (human) (P80192 whole entry, looked up): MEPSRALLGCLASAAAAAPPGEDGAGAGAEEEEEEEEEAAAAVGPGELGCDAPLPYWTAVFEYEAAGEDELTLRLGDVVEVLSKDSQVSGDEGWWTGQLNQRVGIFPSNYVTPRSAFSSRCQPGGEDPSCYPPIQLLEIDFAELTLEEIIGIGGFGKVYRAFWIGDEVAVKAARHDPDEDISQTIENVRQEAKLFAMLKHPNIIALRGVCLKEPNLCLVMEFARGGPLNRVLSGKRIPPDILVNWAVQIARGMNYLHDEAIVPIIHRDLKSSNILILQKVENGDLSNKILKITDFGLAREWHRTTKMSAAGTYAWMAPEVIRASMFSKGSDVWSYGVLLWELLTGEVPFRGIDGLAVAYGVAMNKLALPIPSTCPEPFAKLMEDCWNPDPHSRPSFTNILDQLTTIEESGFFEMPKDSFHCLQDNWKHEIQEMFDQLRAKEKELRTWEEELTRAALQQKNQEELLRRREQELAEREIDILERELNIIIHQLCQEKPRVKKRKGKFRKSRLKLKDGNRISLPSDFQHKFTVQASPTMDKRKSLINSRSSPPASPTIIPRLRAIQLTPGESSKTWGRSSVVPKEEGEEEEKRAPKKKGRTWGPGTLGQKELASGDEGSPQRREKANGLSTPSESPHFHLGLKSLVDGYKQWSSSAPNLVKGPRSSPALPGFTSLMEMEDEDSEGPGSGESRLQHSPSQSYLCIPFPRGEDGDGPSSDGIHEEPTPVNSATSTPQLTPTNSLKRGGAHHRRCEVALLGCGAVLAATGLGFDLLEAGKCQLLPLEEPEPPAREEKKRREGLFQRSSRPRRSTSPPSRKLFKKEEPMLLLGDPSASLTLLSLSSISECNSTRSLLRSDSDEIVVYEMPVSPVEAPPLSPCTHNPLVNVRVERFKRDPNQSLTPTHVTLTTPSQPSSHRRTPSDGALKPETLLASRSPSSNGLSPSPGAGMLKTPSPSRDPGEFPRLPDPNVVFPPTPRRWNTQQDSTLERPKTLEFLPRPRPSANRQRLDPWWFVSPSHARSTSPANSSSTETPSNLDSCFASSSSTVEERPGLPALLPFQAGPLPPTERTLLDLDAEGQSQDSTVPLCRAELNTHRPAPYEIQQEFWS

GRK6 (human) = GRK6 (human) (UniProt P43250)
CSNK2A2 (human) = CSNK2A2 (human) (UniProt P19784)
VRK1 (human) = VRK1 (human) (UniProt Q99986)
GRK4 (human) = GRK4 (human) (UniProt P32298)
NTRK1 (human) = NTRK1 (human) (UniProt P04629)
PKN2 (human) = PKN2 (human) (UniProt Q16513)
ACVRL1 (human) = ACVRL1 (human) (UniProt P37023)
ULK1 (human) = ULK1 (human) (UniProt O75385)
CSNK2A1 (human) = CSNK2A1 (human) (UniProt P68400)
Sequence of CSNK2A1 (human) (P68400 whole entry, looked up): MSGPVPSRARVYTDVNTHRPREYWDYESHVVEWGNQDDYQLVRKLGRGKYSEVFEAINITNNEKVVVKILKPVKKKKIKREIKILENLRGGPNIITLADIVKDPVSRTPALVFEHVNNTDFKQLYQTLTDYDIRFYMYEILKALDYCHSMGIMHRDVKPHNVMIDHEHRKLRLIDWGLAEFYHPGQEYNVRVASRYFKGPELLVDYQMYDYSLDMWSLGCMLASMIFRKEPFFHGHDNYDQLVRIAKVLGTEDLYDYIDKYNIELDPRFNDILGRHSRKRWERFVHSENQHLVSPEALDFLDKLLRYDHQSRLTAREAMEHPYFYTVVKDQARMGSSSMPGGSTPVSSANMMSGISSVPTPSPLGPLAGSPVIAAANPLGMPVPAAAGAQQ

EPHB3 (human) = EPHB3 (human) (UniProt P54753)
SRPK2 (human) = SRPK2 (human) (UniProt P78362)
HCK (human) = HCK (human) (UniProt P08631)
RPS6KA4 KD2 (human) = RPS6KA4 KD2 (human) (UniProt O75676)
NUAK2 (human) = NUAK2 (human) (UniProt Q9H093)
AURKA (human) = AURKA (human) (UniProt O14965)
PNCK (human) = PNCK (human) (UniProt Q6P2M8)
Sequence of PNCK (human) (Q6P2M8 whole entry, looked up): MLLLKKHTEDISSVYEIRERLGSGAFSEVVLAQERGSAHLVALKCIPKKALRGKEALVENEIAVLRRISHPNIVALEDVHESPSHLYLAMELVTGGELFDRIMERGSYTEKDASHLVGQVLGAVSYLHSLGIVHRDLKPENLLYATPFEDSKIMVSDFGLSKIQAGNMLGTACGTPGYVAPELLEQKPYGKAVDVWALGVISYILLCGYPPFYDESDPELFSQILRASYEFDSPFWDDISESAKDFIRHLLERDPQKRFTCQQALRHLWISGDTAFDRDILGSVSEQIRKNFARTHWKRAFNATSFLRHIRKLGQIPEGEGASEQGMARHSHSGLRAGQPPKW

FGFR4 (human) = FGFR4 (human) (UniProt P22455)
Sequence of FGFR4 (human) (P22455 whole entry, looked up): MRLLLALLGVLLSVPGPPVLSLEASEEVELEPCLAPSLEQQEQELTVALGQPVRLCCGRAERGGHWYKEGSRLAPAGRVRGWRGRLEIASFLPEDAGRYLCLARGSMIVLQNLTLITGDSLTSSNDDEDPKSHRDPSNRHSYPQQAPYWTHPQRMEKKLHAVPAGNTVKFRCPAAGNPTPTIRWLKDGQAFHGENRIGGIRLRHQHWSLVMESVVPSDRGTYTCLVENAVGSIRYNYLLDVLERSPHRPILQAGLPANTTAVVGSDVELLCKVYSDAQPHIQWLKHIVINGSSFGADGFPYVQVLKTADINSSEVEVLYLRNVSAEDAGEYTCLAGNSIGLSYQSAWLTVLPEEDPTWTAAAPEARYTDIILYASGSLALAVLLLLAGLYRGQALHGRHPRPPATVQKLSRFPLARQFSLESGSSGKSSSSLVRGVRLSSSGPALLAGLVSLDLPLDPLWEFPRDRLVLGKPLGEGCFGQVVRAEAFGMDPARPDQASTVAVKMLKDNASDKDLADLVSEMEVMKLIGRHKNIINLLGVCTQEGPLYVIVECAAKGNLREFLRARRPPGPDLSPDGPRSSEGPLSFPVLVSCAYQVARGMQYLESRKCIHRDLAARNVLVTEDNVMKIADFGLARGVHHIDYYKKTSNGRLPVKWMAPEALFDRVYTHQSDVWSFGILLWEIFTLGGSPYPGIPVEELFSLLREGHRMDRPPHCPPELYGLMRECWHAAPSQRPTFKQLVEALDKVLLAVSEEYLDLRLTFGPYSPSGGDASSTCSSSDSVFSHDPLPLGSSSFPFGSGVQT

CDK2 CCNA2 (human) = CDK2 CCNA2 (human) (UniProt P24941+P20248)
PIM1 (human) = PIM1 (human) (UniProt P11309)

Sequence of HIPK2 (human) (Q9H2X6 whole entry, looked up): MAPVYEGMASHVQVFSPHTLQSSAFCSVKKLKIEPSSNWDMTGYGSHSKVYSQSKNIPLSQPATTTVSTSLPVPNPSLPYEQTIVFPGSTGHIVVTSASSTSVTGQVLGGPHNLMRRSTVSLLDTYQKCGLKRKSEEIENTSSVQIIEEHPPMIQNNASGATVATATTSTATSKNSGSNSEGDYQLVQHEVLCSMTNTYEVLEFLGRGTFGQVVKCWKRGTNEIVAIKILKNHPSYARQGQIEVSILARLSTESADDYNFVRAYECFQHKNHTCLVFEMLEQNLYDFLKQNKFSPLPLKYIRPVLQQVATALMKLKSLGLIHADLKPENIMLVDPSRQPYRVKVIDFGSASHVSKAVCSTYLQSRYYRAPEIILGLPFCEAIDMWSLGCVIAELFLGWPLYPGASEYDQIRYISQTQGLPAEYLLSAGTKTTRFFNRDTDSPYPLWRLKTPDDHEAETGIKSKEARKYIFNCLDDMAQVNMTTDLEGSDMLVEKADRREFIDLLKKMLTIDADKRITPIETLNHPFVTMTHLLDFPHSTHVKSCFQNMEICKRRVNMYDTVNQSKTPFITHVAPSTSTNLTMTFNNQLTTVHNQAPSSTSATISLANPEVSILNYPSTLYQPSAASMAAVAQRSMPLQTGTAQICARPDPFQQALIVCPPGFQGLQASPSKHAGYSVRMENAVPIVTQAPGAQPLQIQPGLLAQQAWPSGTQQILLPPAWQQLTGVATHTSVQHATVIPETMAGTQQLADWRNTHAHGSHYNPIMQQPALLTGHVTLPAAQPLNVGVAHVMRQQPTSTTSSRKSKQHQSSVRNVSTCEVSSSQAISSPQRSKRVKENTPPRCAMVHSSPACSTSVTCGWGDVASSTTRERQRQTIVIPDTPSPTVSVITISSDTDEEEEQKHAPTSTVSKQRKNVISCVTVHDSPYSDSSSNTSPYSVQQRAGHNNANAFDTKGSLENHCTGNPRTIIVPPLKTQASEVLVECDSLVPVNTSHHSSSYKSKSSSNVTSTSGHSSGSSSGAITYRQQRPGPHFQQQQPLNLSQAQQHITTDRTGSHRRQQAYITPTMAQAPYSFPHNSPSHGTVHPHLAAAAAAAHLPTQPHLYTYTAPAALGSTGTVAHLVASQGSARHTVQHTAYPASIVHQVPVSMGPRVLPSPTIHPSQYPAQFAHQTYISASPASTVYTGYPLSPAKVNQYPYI

Row | Compound | residual activity (HIPK2 (human)) [%] | residual activity (WEE1 (human)) [%] | residual activity (EPHA1 (human)) [%] | residual activity (NEK11 (human)) [%] | residual activity (ERBB2 (human)) [%] | residual activity (CDK4 CCND3 (human)) [%] | residual activity (WNK2 (human)) [%] | residual activity (TBK1 (human)) [%] | residual activity (CDK1 CCNB1 (human)) [%] | residual activity (EPHA2 (human)) [%] | residual activity [1] [%] | residual activity (MAPKAPK3 (human)) [%] | residual activity (PRKCE (human)) [%] | residual activity (SRMS (human)) [%] | residual activity (RPS6KA3 KD1 KD2 (human)) [%] | residual activity (CLK4 (human)) [%] | residual activity (ULK2 (human)) [%] | residual activity (ROS1 (human)) [%] | residual activity (RPS6KB2 (human)) [%] | residual activity (CDK5 CDK5R1 p25 (human)) [%] | also measured
1 | CN(C)CCCn1cc(C2=C(c3c[nH]c4ccccc34)C(=O)NC2=O)c2ccccc21 | 77.5 | 101 | 89.9 | 104 | 96.5 | 67 | 107 | 83.8 | 92 | 81.8 | 30.6 | 95.3 | 0.493 | 104 | 2.47 | 44.8 | 145 | 62.8 | 59 | 80.2 | residual activity (MET (human)): 102%; residual activity (MAP3K9 (human)): 46%; residual activity (GRK6 (human)): 72%; residual activity (CSNK2A2 (human)): 92%; residual activity (VRK1 (human)): 95.5%; residual activity (GRK4 (human)): 84.5%; residual activity (NTRK1 (human)): 108%; residual activity (PKN2 (human)): 72.1%; residual activity (ACVRL1 (human)): 107%; residual activity (ULK1 (human)): 84.7%; residual activity (CSNK2A1 (human)): 99.5%; residual activity (EPHB3 (human)): 95.2%; residual activity (SRPK2 (human)): 94.4%; residual activity (HCK (human)): 92.3%; residual activity (RPS6KA4 KD2 (human)): 34.9%; residual activity (NUAK2 (human)): 66%; residual activity (AURKA (human)): 108%; residual activity (PNCK (human)): 106%; residual activity (FGFR4 (human)): 89%; residual activity (CDK2 CCNA2 (human)): 85.2%
2 | COc1cc2ncnc(Nc3ccc(Oc4ccccc4)cc3)c2cc1OC | 94.8 | 99.1 | 95.6 | 74.8 | 29.5 | 98.4 | 88.1 | 93.7 | 81.2 | 106 | 62.5 | 98.9 | 94.6 | 31.6 | 97.8 | 122 | 97.8 | 95.3 | 97.4 | 88.8 | residual activity (MAP3K9 (human)): 57.7%; residual activity (GRK6 (human)): 99.6%; residual activity (CSNK2A2 (human)): 98.2%; residual activity (VRK1 (human)): 98.2%; residual activity (GRK4 (human)): 97.1%; residual activity (NTRK1 (human)): 101%; residual activity (PKN2 (human)): 93.6%; residual activity (ACVRL1 (human)): 100%; residual activity (ULK1 (human)): 89.5%; residual activity (CSNK2A1 (human)): 114%; residual activity (EPHB3 (human)): 103%; residual activity (SRPK2 (human)): 101%; residual activity (HCK (human)): 13.5%; residual activity (PIM1 (human)): 102%; residual activity (RPS6KA4 KD2 (human)): 94.4%; residual activity (NUAK2 (human)): 137%; residual activity (AURKA (human)): 79.2%; residual activity (PNCK (human)): 97.7%; residual activity (FGFR4 (human)): 77.8%; residual activity (CDK2 CCNA2 (human)): 100%
